Measurements from patent US7192746B2, “α-Isomaltosyltransferase, process for producing the same and use thereof” (Kabushiki Kaisha Hayashibara Seibutsu Kagaku Kenkyujo, priority 2000, dated 2007).

Assays:
Assay in all cases: Specificity to transferring acceptor
Assay type in all cases: biochemical
Set-up in all cases: key: −: no saccharide transferred product was formed; ±: a saccharide-transferred product formed in an amount of less than one percent to the total sugars; +: a saccharide-transferred product was formed in an amount of over one percent but below 10% to the total sugars; ++: a saccharide-transferred product was formed in an amount of over 10% to the total sugars
[1] = system: α-isomaltosyl-transferring enzyme from Bacillus globisporus C11; details: panose as saccharide donor, 10 units/g substrate, 3.2% (w/v), 30° C., pH 6.0, 24 hours
Procedure: (§1) Saccharides were tested as follows to examine whether they can be used as transferring acceptors for the α-isomaltosyl-transferring enzyme of the present invention. A solution of D-glucose, D-xylose, L-xylose, D-galactose, D-fructose, D-mannose, D-arabinose, D-fucose, L-sorbose, L-rhamnose, methyl-α-glucoside (or methyl-α-glucopyranoside), methyl-β-glucoside (or methyl-β-glucopyranoside), N-acetyl-D-glucosamine, D-ribose, L-ribose, D-psicose, sorbitol, xylitol, mannitol, arabitol, ribitol, erythritol, maltose, maltotriose, maltotetraose, maltopentaose, isomaltose, isomaltotriose, α,α-trehalose, α,β-trehalose, kojibiose, nigerose, cellobiose, gentibiose, isopanose, maltitol, maltotriitol, lactose, sucrose, erlose, isomaltosylglucoside, α-cyclodextrin, β-cyclodextrin, γ-cyclodextrin, or L-ascorbic acid was prepared. To each solution was added panose as a saccharide donor to give an equal concentration, admixed with 10 units/g substrate of a purified specimen of either α-isomaltosyl-transferring enzyme from Bacillus globisporus C9 obtained by the method in Experiment 4, Bacillus globisporus C11 obtained by the method in Experiment 7, Bacillus globisporus N75 obtained by the method in Experiment 11, or Arthrobacter ramosus S1 obtained by the method in Experiment 15, or a partially purified specimen of α-isomaltosyl-transferring enzyme from Arthrobacter globiformis A19 obtained by the method in Experiment 18, followed by adjusting the saccharide concentration to 3.2% (w/v). The mixtures thus obtained were enzymatically reacted at 30° C. and Ph 6.0 for 24 hours. The saccharide composition of the resulting reaction mixtures were analyzed on gas chromatography (abbreviated as “GLC” hereinafter) for monosaccharides and disaccharides as testing saccharides, and on HPLC for tri- or higher-saccharides as testing saccharides to confirm whether these saccharides can be used as transferring acceptors for the above enzymes with an index of the positive or negative formation of a saccharide transferred product. In performing GLC, the following apparatuses and conditions were used: GLC apparatus, “GC-16A” commercialized by Shimadzu Corporation, Tokyo, Japan; column, a stainless-steel column, 3 mm in diameter and 2 m in length, packed with 2% “SILICONE OV-17/[…]”, commercialized by GL Sciences Inc., Tokyo, Japan; carrier gas, nitrogen gas at a flow rate of 40 ml/min under temperature conditions of increasing from 160° C. to 320° C. at an increasing temperature rate of 7.5° C./min; and detection, a hydrogen flame ionization detector. In the case of HPLC analysis, the apparatuses and conditions used were: HPLC apparatus, “CCPD” commercialized by Tosoh Corporation, Tokyo, Japan; column, “ODS-AQ-303” commercialized by YMC Co., Ltd., Tokyo, Japan; eluent, water at a flow rate of 0.5 ml/min; and detection, a differential refractometer.

[2] = system: α-isomaltosyl-transferring enzyme from Bacillus globisporus C9; details: panose as saccharide donor, 10 units/g substrate, 3.2% (w/v), 30° C., pH 6.0, 24 hours
Procedure: as §1

[3] = system: α-isomaltosyl-transferring enzyme from Bacillus globisporus N75; details: panose as saccharide donor, 10 units/g substrate, 3.2% (w/v), 30° C., pH 6.0, 24 hours
Procedure: as §1

[4] = system: α-isomaltosyl-transferring enzyme from Arthrobacter globiformis A19; details: partially purified enzyme, panose as saccharide donor, 10 units/g substrate, 3.2% (w/v), 30° C., pH 6.0, 24 hours
Procedure: as §1

[5] = system: α-isomaltosyl-transferring enzyme from Arthrobacter ramosus S1; details: panose as saccharide donor, 10 units/g substrate, 3.2% (w/v), 30° C., pH 6.0, 24 hours
Procedure: as §1

| Compound | Product of transferring reaction, Enzyme of Strain C11 [1] | Product of transferring reaction, Enzyme of Strain C9 [2] | Product of transferring reaction, Enzyme of Strain N75 [3] | Product of transferring reaction, Enzyme of Stain A19 [4] | Product of transferring reaction, Enzyme of Strain S1 [5] |
| --- | --- | --- | --- | --- | --- |
| OC[C@@H](O)[C@@H](O)CO [Erythritol, erythritol] | + (a saccharide-transferred product was formed in an amount of over one percent but below 10% to the total sugars) | + (a saccharide-transferred product was formed in an amount of over one percent but below 10% to the total sugars) | + (a saccharide-transferred product was formed in an amount of over one percent but below 10% to the total sugars) | ± (a saccharide-transferred product formed in an amount of less than one percent to the total sugars) | + (a saccharide-transferred product was formed in an amount of over one percent but below 10% to the total sugars) |
| O=C1O[C@H]([C@@H](O)CO)C(O)=C1O [L-Ascorbic acid, L-ascorbic acid] | ++ (a saccharide-transferred product was formed in an amount of over 10% to the total sugars) | ++ (a saccharide-transferred product was formed in an amount of over 10% to the total sugars) | ++ (a saccharide-transferred product was formed in an amount of over 10% to the total sugars) | + (a saccharide-transferred product was formed in an amount of over one percent but below 10% to the total sugars) | ++ (a saccharide-transferred product was formed in an amount of over 10% to the total sugars) |
| C[C@H](O)[C@H](O)[C@@H](O)[C@@H](O)C=O [L-Rhamnose, L-rhamnose] | ± (a saccharide-transferred product formed in an amount of less than one percent to the total sugars) | ± (a saccharide-transferred product formed in an amount of less than one percent to the total sugars) | ± (a saccharide-transferred product formed in an amount of less than one percent to the total sugars) | ± (a saccharide-transferred product formed in an amount of less than one percent to the total sugars) | + (a saccharide-transferred product was formed in an amount of over one percent but below 10% to the total sugars) |
| O=C[C@@H](O)[C@@H](O)[C@@H](O)CO [L-Ribose, L-ribose] | − | − | − | ± (a saccharide-transferred product formed in an amount of less than one percent to the total sugars) | ++ (a saccharide-transferred product was formed in an amount of over 10% to the total sugars) |
| O=C(CO)[C@@H](O)[C@H](O)[C@@H](O)CO [L-Sorbose, L-sorbose] | + (a saccharide-transferred product was formed in an amount of over one percent but below 10% to the total sugars) | + (a saccharide-transferred product was formed in an amount of over one percent but below 10% to the total sugars) | + (a saccharide-transferred product was formed in an amount of over one percent but below 10% to the total sugars) | + (a saccharide-transferred product was formed in an amount of over one percent but below 10% to the total sugars) | + (a saccharide-transferred product was formed in an amount of over one percent but below 10% to the total sugars) |
| O=C[C@@H](O)[C@H](O)[C@@H](O)CO [L-Xylose, L-xylose] | ++ (a saccharide-transferred product was formed in an amount of over 10% to the total sugars) | ++ (a saccharide-transferred product was formed in an amount of over 10% to the total sugars) | ++ (a saccharide-transferred product was formed in an amount of over 10% to the total sugars) | ++ (a saccharide-transferred product was formed in an amount of over 10% to the total sugars) | ++ (a saccharide-transferred product was formed in an amount of over 10% to the total sugars) |
| OC[C@@H](O)[C@@H](O)[C@H](O)[C@H](O)CO [Mannitol, mannitol] | − | − | − | − | − |
| CO[C@H]1O[C@H](CO)[C@@H](O)[C@H](O)[C@H]1O [Methyl-α-glucoside, methyl-α-glucoside] | ++ (a saccharide-transferred product was formed in an amount of over 10% to the total sugars) | ++ (a saccharide-transferred product was formed in an amount of over 10% to the total sugars) | ++ (a saccharide-transferred product was formed in an amount of over 10% to the total sugars) | ++ (a saccharide-transferred product was formed in an amount of over 10% to the total sugars) | ++ (a saccharide-transferred product was formed in an amount of over 10% to the total sugars) |
| CO[C@@H]1O[C@H](CO)[C@@H](O)[C@H](O)[C@H]1O [Methyl-β-glucoside, methyl-β-glucoside] | ++ (a saccharide-transferred product was formed in an amount of over 10% to the total sugars) | ++ (a saccharide-transferred product was formed in an amount of over 10% to the total sugars) | ++ (a saccharide-transferred product was formed in an amount of over 10% to the total sugars) | + (a saccharide-transferred product was formed in an amount of over one percent but below 10% to the total sugars) | + (a saccharide-transferred product was formed in an amount of over one percent but below 10% to the total sugars) |
| CC(=O)N[C@H]1C(O)O[C@H](CO)[C@@H](O)[C@@H]1O (stereo partly drawn) [N-Acetyl-glucosamine, N-acetyl-D-glucosamine] | − | − | − | − | − |
| OC[C@@H](O)[C@@H](O)[C@@H](O)CO [Ribitol, ribitol] | − | − | − | − | ± (a saccharide-transferred product formed in an amount of less than one percent to the total sugars) |
